Test results reported in PubChem BioAssay (NCI).
Several values for one entry are separate records, joined by “and”; a condition that tells them apart may be missing. Identical values can stand only once.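 Each compound was tested at five concentrations against cells in 96-well plates for 48 hours. GI50 = concentration required for 50% inhibition of growth. TGI denotes the concentration required for complete inhibition of growth.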

Experiments:
Assay in all cases: NCI tumour cell line growth inhibition, 48 h
U251 CNS = test system: U251 CNS
HOP-62 NSCLC = test system: HOP-62 NSCLC
NCI-H522 lung = test system: NCI-H522 lung
SK-MEL-2 melanoma = test system: SK-MEL-2 melanoma
LXFL 529 NSCLC = test system: LXFL 529 NSCLC
SNB-78 CNS = test system: SNB-78 CNS
DLD-1 colon = test system: DLD-1 colon
HOP-18 NSCLC = test system: HOP-18 NSCLC
KM20L2 colon = test system: KM20L2 colon
DMS 114 small cell lung = test system: DMS 114 small cell lung
DMS 273 small cell lung = test system: DMS 273 small cell lung
M19-MEL melanoma = test system: M19-MEL melanoma
XF 498 CNS = test system: XF 498 CNS

| SMILES | TGI (U251 CNS) [µM] | TGI (HOP-62 NSCLC) | TGI (NCI-H522 lung) | TGI (SK-MEL-2 melanoma) | also measured |
| --- | --- | --- | --- | --- | --- |
| COC(=O)C1=C(C(=O)OC)C2OC1C1C2C2(C)C(C)=C(C)C1(C)S2=O (stereo unspecified) | 26.8 | 41.8 µM | 6.49 µM | 28 µM | – |
| CCCCN(CC)c1nc(C)nc2c1c(C)c(C)n2-c1c(C)cc(C)cc1C | 23.9 | 32.9 µM | 25.7 µM | 25.7 µM | – |
| CC(=O)OCC1OC(N2C(=O)/C(=C\c3ccc(Cl)cc3)C(N)=Nc3ccccc32)C(OC(C)=O)C(OC(C)=O)C1OC(C)=O (stereo unspecified) | 30.5 | 85.7 µM | – | 74.6 µM | – |
| O=c1[nH]c2nc3ccccc3c(=O)n2/c1=C/c1ccc(O)cc1 | 83.6 | > 100 µM | > 100 µM | > 100 µM | – |
| COc1cc2c(cc1OCCCCCOc1cc3c(cc1OC)C(=O)N1CCC[C@H]1C(=O)N3)N=C[C@@H]1CCCN1C2=O | 0.51 | 26.3 µM | 0.0419 µM | 0.666 µM | – |
| C=CCN(CC=C)Cn1c(=S)sc2ccccc21 | > 100 | > 100 µM | 37.7 µM | > 100 µM | – |
| CC(=O)NC1C(OCc2ccccc2)OC(CO)C(O)C1OCC(=O)N[C@@H](C)C(=O)N[C@H](CCC(=O)NCCNCCNc1c2ccccc2nc2cccc([N+](=O)[O-])c12)C(N)=O (stereo partly specified) | > 100 | > 100 µM | 28.1 µM | 46.5 µM | – |
| COc1ccc(-c2c(C#N)c(N)n(C3OC(CO)C(O)C(O)C3O)c(=S)c2C#N)cc1 (stereo unspecified) | > 100 | > 100 µM | > 100 µM | > 100 µM | GI50 (NCI-H522 lung): 34.4 µM and 13.2 µM |
| O=c1oc2ccccc2c(O)c1C(c1cc(OCc2ccccc2)cc(OCc2ccccc2)c1)c1c(O)c2ccccc2oc1=O | > 47.3 | 37 µM | 37.9 µM | 27.3 µM | – |
| Cc1c(S(=O)(=O)c2ccccc2)c(N)n(Cc2ccccc2)c1C | > 100 | – | > 100 µM | > 100 µM | – |
| CCOC(=O)C(OCC1CC=CCC1)Sc1ccccc1 (stereo unspecified) | > 100 | > 100 µM | > 100 µM | > 100 µM | TGI (LXFL 529 NSCLC): > 100 µM; TGI (SNB-78 CNS): > 100 µM; TGI (DLD-1 colon): > 100 µM; TGI (HOP-18 NSCLC): > 100 µM; TGI (KM20L2 colon): > 100 µM; TGI (DMS 114 small cell lung): > 100 µM; TGI (DMS 273 small cell lung): > 100 µM; TGI (M19-MEL melanoma): > 100 µM |
| C=CC1=CSNN1 | > 100 | > 100 µM | > 100 µM | > 100 µM | TGI (LXFL 529 NSCLC): > 100 µM; TGI (DLD-1 colon): > 100 µM; TGI (HOP-18 NSCLC): > 100 µM; TGI (KM20L2 colon): > 100 µM; TGI (DMS 114 small cell lung): > 100 µM; TGI (DMS 273 small cell lung): > 100 µM; TGI (M19-MEL melanoma): > 100 µM |
| Cc1c(Cl)ccc2c(=O)c3cccc(CC(=O)O)c3oc12 | > 100 | > 100 µM | > 100 µM | > 100 µM | – |
| O=c1c2ccccc2[nH]c(=S)n1-c1ccc(N=Nc2cccc3c(O)cccc23)cc1 | > 100 | > 100 µM | > 100 µM | > 100 µM | – |
| O=C(Cc1nc2ccc(C(=O)c3ccccc3)cc2[nH]c1=O)C(=O)Nc1ccc(Br)cc1 | > 100 | > 100 µM | > 100 µM | > 100 µM | – |
| Oc1ccccc1C(c1cc2c(cc1O)OCO2)N1CCOCC1 (stereo unspecified) | 30.2 | > 100 µM | 24.3 µM | 36 µM | – |

| SMILES | TGI (U251 CNS) [µM] | TGI (HOP-62 NSCLC) | TGI (NCI-H522 lung) | TGI (SK-MEL-2 melanoma) | also measured |
| --- | --- | --- | --- | --- | --- |
| CCN(CC)CCn1c2cc3c(cc2c(=O)c2cccnc21)OCCO3 | > 10 | > 10 µM | > 10 µM | – | – |
| N#Cc1c(N)[nH]c(=S)c(C#N)c1-c1cccc(Cl)c1 | > 100 | > 100 µM | 56.7 µM | 56.6 µM | – |
| COc1ccc(-c2c(C#N)c(S)n(C3OC(COC(C)=O)C(OC(C)=O)C(OC(C)=O)C3OC(C)=O)c(=O)c2C#N)cc1 (stereo unspecified) | > 100 | 67.5 µM and > 100 µM | > 100 µM and 65.4 µM | > 100 µM and 36.1 µM | GI50 (U251 CNS): 36.8 µM and 75.2 µM; GI50 (NCI-H522 lung): 88.4 µM and 29.7 µM; GI50 (SK-MEL-2 melanoma): 91.5 µM and 20 µM |
| Cc1ccc2c(c1C)CC1(Cc3c(ccc4c3CCC4)C1=O)C2=O (stereo unspecified) | > 100 | – | > 100 µM | > 100 µM | – |
| COc1ccc(C2C(Cl)C(=O)N2NC(=O)c2ccc(NC(C)=O)cc2)cc1 (stereo unspecified) | > 100 | > 100 µM | > 100 µM | > 100 µM | TGI (LXFL 529 NSCLC): > 100 µM; TGI (SNB-78 CNS): > 100 µM; TGI (XF 498 CNS): > 100 µM; TGI (DLD-1 colon): > 100 µM; TGI (KM20L2 colon): > 100 µM; TGI (DMS 273 small cell lung): > 100 µM; TGI (M19-MEL melanoma): > 100 µM |
| Cc1ccc(N=Nc2c3c(c(O)c4ccccc24)CCC(C)(C)O3)cc1 | > 100 | 36.6 µM | > 100 µM | 36.7 µM | – |
| c1cc2nnc1SCCSCCSc1ccc(nn1)SCCSCCS2 | > 100 | > 100 µM | > 100 µM | > 100 µM | – |
| c1ccc([P+](CCNCCNCC[P+](c2ccccc2)(c2ccccc2)c2ccccc2)(c2ccccc2)c2ccccc2)cc1 | > 100 | > 100 µM | – | > 100 µM | – |
| O=C(/C(=C(/Br)I)c1ccccc1)c1ccccc1 | 53.1 | – | – | – | – |
| COc1ccc(Nc2c(C#N)c3n(c4ccccc24)c2ccccc2[n+]3C)cc1OC | 17.9 | 23.6 µM | 16 µM | 14.9 µM | – |
| CO[C@@H](C(=O)OC1C=CC2(CC1)C(=O)N(C)c1ccccc12)c1ccccc1 (stereo partly specified) | > 100 | > 100 µM | – | > 100 µM | – |
| Cc1ccccc1C1OC1C(=O)c1ccccc1N (stereo unspecified) | > 100 | – | – | > 100 µM | – |
| CCOC(=O)c1sc2nc(SC)nc3c2c1N=CN3c1ccc(Br)cc1 | > 100 | > 100 µM | > 100 µM | > 100 µM | – |
| Cc1sc2nc3n(c(=O)c2c1C)N=CN(c1ccccc1)C3 | > 100 | 65.3 µM | > 100 µM | > 100 µM | – |
| CCOc1ccc(NC(=O)CC2Sc3ccccc3NC2=O)cc1 (stereo unspecified) | > 100 | > 100 µM | > 100 µM | – | TGI (LXFL 529 NSCLC): > 100 µM; TGI (SNB-78 CNS): > 100 µM; TGI (DLD-1 colon): > 100 µM; TGI (HOP-18 NSCLC): 54 µM; TGI (KM20L2 colon): > 100 µM; TGI (DMS 114 small cell lung): > 100 µM; TGI (DMS 273 small cell lung): > 100 µM; TGI (M19-MEL melanoma): > 100 µM |
